Assay results from the supplement of paper PMC10307832.

What was measured:
Experiment in all cases: relative viability (nuclei count vs DMSO), 5 days (fraction); higher = more cells survive
HCC-78 = tested on: HCC-78
In short: (§1)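 Lung cancer cell lines in 1536-well plates were dosed by pin tool the day after seeding, either with one drug alone or with a fixed anchor-drug dose plus five library-drug doses (not always all listed) in √10 steps. After 5 days, cells were fixed and their nuclei stained in one step (final 0.05% Triton X-100, 1% formaldehyde, 1 ug/ml Hoechst), then counted on 4× images. Relative viability is the nuclei count in treated wells divided by that in vehicle wells. Values are medians of duplicate plates.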

COR-L 105 = tested on: COR-L 105
In short: as §1

NCI-H23 = tested on: NCI-H23
In short: as §1

NCI-H2405 = tested on: NCI-H2405
In short: as §1

NCI-H647 = tested on: NCI-H647
In short: as §1

HCC-827 = tested on: HCC-827
In short: as §1

LCLC-97TM1 = tested on: LCLC-97TM1
In short: as §1

NCI-H322M = tested on: NCI-H322M
In short: as §1

NCI-H2087 = tested on: NCI-H2087
In short: as §1

NCI-H2347 = tested on: NCI-H2347
In short: as §1

NCI-H1915 = tested on: NCI-H1915
In short: as §1

H3255 = tested on: H3255
In short: as §1

C=C1C(=O)O[C@@H](CCCCCCCC)[C@@H]1C(=O)O [C-75] + CS(=O)(=O)N1CCN(Cc2cc3nc(-c4cccc5[nH]ncc45)nc(N4CCOCC4)c3s2)CC1 [Pictilisib] (partner 1 µM)
relative viability (HCC-78; first compound 0.8 µM): 0.206
relative viability (HCC-78; first compound 2.53 µM): 0.198
relative viability (HCC-78; first compound 8 µM): 0.22
relative viability (COR-L 105; first compound 0.08 µM): 0.437
relative viability (COR-L 105; first compound 0.253 µM): 0.422
relative viability (COR-L 105; first compound 0.8 µM): 0.469
relative viability (COR-L 105; first compound 2.53 µM): 0.432
relative viability (COR-L 105; first compound 8 µM): 0.343
relative viability (NCI-H23; first compound 0.08 µM): 0.459
relative viability (NCI-H23; first compound 0.253 µM): 0.686
relative viability (NCI-H23; first compound 0.8 µM): 0.416
relative viability (NCI-H23; first compound 2.53 µM): 0.475
relative viability (NCI-H23; first compound 8 µM): 0.311
relative viability (NCI-H2405; first compound 0.08 µM): 0.471
relative viability (NCI-H2405; first compound 0.253 µM): 0.307
relative viability (NCI-H2405; first compound 0.8 µM): 0.37
relative viability (NCI-H2405; first compound 2.53 µM): 0.408
relative viability (NCI-H2405; first compound 8 µM): 0.391
relative viability (NCI-H647; first compound 0.08 µM): 0.449
relative viability (NCI-H647; first compound 0.253 µM): 0.427
relative viability (NCI-H647; first compound 2.53 µM): 0.396
relative viability (NCI-H647; first compound 8 µM): 0.498
relative viability (HCC-827; first compound 0.08 µM): 0.954
relative viability (HCC-827; first compound 0.253 µM): 0.95
relative viability (HCC-827; first compound 0.8 µM): 1.14
relative viability (HCC-827; first compound 2.53 µM): 0.694
relative viability (HCC-827; first compound 8 µM): 0.915
relative viability (LCLC-97TM1; first compound 0.08 µM): 0.234
relative viability (LCLC-97TM1; first compound 0.253 µM): 0.215
relative viability (LCLC-97TM1; first compound 0.8 µM): 0.265
relative viability (LCLC-97TM1; first compound 2.53 µM): 0.187
relative viability (LCLC-97TM1; first compound 8 µM): 0.18
relative viability (NCI-H322M; first compound 0.08 µM): 0.563
relative viability (NCI-H322M; first compound 0.253 µM): 0.674
relative viability (NCI-H322M; first compound 0.8 µM): 0.514
relative viability (NCI-H322M; first compound 2.53 µM): 0.528
relative viability (NCI-H322M; first compound 8 µM): 0.489
relative viability (NCI-H2087; first compound 0.08 µM): 0.853
relative viability (NCI-H2087; first compound 0.253 µM): 0.844
relative viability (NCI-H2087; first compound 0.8 µM): 0.733
relative viability (NCI-H2087; first compound 2.53 µM): 0.428
relative viability (NCI-H2087; first compound 8 µM): 0.859
relative viability (NCI-H2347; first compound 0.08 µM): 0.554
relative viability (NCI-H2347; first compound 0.253 µM): 0.877
relative viability (NCI-H2347; first compound 0.8 µM): 0.31
relative viability (NCI-H2347; first compound 2.53 µM): 0.592
relative viability (NCI-H2347; first compound 8 µM): 0.649
relative viability (NCI-H1915; first compound 0.08 µM): 0.953
relative viability (NCI-H1915; first compound 0.253 µM): 1.08
relative viability (NCI-H1915; first compound 0.8 µM): 0.857
relative viability (NCI-H1915; first compound 2.53 µM): 0.828
relative viability (NCI-H1915; first compound 8 µM): 0.763
relative viability (H3255; first compound 0.08 µM): 0.464
relative viability (H3255; first compound 0.253 µM): 0.572
relative viability (H3255; first compound 0.8 µM): 0.458
relative viability (H3255; first compound 2.53 µM): 0.494
relative viability (H3255; first compound 8 µM): 0.447
